In this assay the target is T1, Glucocorticoid Receptor (Homo sapiens, UniProt P04150).
T1 construct: expressed in transfected cells
T1 sequence (P04150 524-758 limits assumed): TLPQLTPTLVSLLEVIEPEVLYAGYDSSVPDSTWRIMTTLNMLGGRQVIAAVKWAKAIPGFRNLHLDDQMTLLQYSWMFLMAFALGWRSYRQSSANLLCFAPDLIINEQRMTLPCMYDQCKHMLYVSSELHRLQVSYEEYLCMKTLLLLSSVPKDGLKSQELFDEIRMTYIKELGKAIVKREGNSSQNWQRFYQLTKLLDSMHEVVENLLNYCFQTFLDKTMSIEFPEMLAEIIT
As to the kind of experiment: Agonistic mode of action on the glucocorticoid receptor (CHO-Gal4/GR luciferase reporter cell line). The format is cell-based. Particulars: CHO-Gal4/GR luciferase reporter cells; observed in the agonistic assay or the antagonistic assay (mode not given); read-out: IC50 or EC50 range. From the text:
Potential selective glucocorticoid receptor modulators of this intervention can be tested for modulation of the activity of the glucocorticoid receptor using cell-based assays. These assays involve a Chinese hamster ovary (CHO) cell line which contains fragments of the glucocorticoid receptor as well as fusion proteins. The glucocorticoid receptor fragments used are capable of binding the ligand (e.g. beclomethasone) to identify molecules that compete for binding with glucocorticoid receptor ligands. In more detail, the glucocorticoid receptor ligand binding domain is fused to the DNA binding domain (DBD) of the transcriptionfactor GAL4 (GAL4 DBD-GR) and is stably integrated into a CHO cell line containing a GAL4-UAS-Luciferase reporter construct. […] After cell lysis the luminescence that is produced by luciferase after addition of the substrate is detected and EC50 or IC50 values can be calculated. Engagement of molecules which induce gene expression via glucocortocoid receptor binding to the DNA leads to expression of the luciferase gene under the control of the fusion protein GAL4 DBD-GR and therefore to a dose-dependent increase of the luminescence signal. Binding of molecules which repress beclomethasone-induced gene expression of the luciferase gene under the control of the fusion protein GAL4 DBD-GR leads to a dose-dependent reduction of the luminescence signal.
The reporter cell line CHO-Gal4/GR consisted of a chinese hamster ovary (CHO) cell line (Leibniz Institute DSMZ—German Collection of Microorganisms and Cell Cultures GmbH: ACC-110) containing a firefly luciferase gene under the control of the GR ligand binding domain fused to the DNA binding domain (DBD) of GAL4 (GAL4 DBD-GR) stably integrated into CHO cells. This cell line was established by stable transfection of CHO cells with a GAL4-UAS-Luciferase reporter construct. In a subsequent step the ligand binding domain of the GR cloned into pIRES2-EGFP-GAL4 containing the DNA binding domain of GAL4 from pFA-AT2 was transfected. This fusion construct activated firefly luciferase expression under the control of a multimerized GAL4 upstream activation sequence (UAS). The signal of the emitted luminescence was recorded by the FLIPR^TETRA. This allowed for specific detection of ligand-induced activation of the GR and therefore for the identification of compounds with agonistic properties. The GAL4/UAS reporter was premixed with a vector that constitutively expressed Renilla luciferase, which served as an internal positive control for transfection efficiency.
The complete culture medium for the assay was: • DMEM F-12 (1:1) MIXTURE (LONZA cat. No: BE04-687F/U1) 500 mL • 5 mL of 100 mM Sodium Pyruvate (LONZA cat. No: BE12-115E) • 25 mL of 7.5% Sodium Bicarbonate (LONZA cat. No BE17-613E) • 6.5 mL of 1 M Hepes (LONZA cat. No: BE17-737E) • 5 mL of 100× Penicillin/Streptomycin (LONZA cat. No DE17-602E) • 50 mL of Fetal Bovine Serum (Euroclone cat. No ECS 0180L) • 0.25 mL of 10 mg/mL Puromycin (InvivoGen cat.: ant-pr-1) • 0.5 mL of 100 mg/mL Zeocin (InvivoGen cat.: ant-zn-1)
Cryo-preserved CHO-Gal4/GR cells were suspended in complete medium and 5000 cells/25 μl/well were seeded into the wells of 384-well polystyrene assay plates (Thermo Scientific, cat. #4332) and cultured at 37° C., 5% CO2 and 95% humidity. After 24 hours growth medium was carefully removed and replaced by 30111 Opti-MEM (GIBCO, cat. #31985062) as assay buffer. To test the compounds an 8-point half-log compound dilution curve was generated in 100% DMSO starting from a 2 mM stock and compounds were then diluted 1:50 in Opti-MEM. 10111 of compounds were then added to the wells containing 30 μl Opti-MEM resulting in a final assay concentration range from 10 μM to 0.003 μM in 0.5% DMSO. Compounds were tested at 8 concentrations in quadruplicate data points. […] Finally, cells were lysed with 20 μl of Triton/Luciferin solution and the signal of the emitted luminescence was recorded at the FLIPR^TETRA for 2 minutes. […]
For orientation: In a reporter assay the amount or activity of a reporter protein is the signal.
Turning to `Cc1c(-c2cc(F)cc3c(C4CC4)c[nH]c23)cc(F)c2c1-n1c(C)nnc1C(C)(C)N2` [Example 38, 8-(3-cyclopropyl-5-fluoro-1H-indol-7-yl)-6-fluoro-1,4,4,9-tetramethyl-4,5-dihydro-1-[1,2,4]triazolo[4,3-a]quinoxaline], the IC50 or EC50 (antagonist or agonist mode, not stated per compound) is under 100 nM. For `CCc1c(-c2cc(F)cc3c2ccn3S(C)(=O)=O)cc(F)c2c1-n1c(C)nnc1C(C)(C)N2` [Example 48, 9-Ethyl-6-fluoro-8-(6-fluoro-1-methylsulfonyl-1H-indol-4-yl)-1,4,4-trimethyl-5H-[1,2,4]triazolo[4,3-a]quinoxaline] the value was under 100 nM; for `CCc1c(-c2cccc3c2ccn3S(C)(=O)=O)cc(F)c2c1-n1c(C)nnc1C(C)(C)N2` [Example 49, 9-ethyl-6-fluoro-1,4,4-trimethyl-8-(1-(methylsulfonyl)-1H-indol-4-yl)-4,5-dihydro-[1,2,4]triazolo[4,3-a]quinoxaline], 100 to 1000 nM. For the molecule `CCc1c(-c2cc(F)cc3c2cnn3S(C)(=O)=O)cc(F)c2c1-n1c(C)nnc1C(C)(C)N2` [Example 53, 9-Ethyl-6-fluoro-8-(6-fluoro-1-methylsulfonyl-1H-indazol-4-yl)-1,4,4-trimethyl-5H-[1,2,4]triazolo[4,3-a]quinoxaline], the IC50 or EC50 (antagonist or agonist mode, not stated per compound) fell in the range of 100 to 1000 nM.

As for `COCCn1ccc2c(-c3cc(F)c4c(c3OC)-n3c(C)nnc3C(C)(C)N4)cc(F)cc21` [Example 54, 6-Fluoro-8-[6-fluoro-1-(2-methoxy-ethyl)-1H-indol-4-yl]-9-methoxy-1,4,4-trimethyl-5H-[1,2,4]triazolo[4,3-a]quinoxaline], the IC50 or EC50 (antagonist or agonist mode, not stated per compound) lay within 100 to 1000 nM. Consider `COc1c(-c2cc(F)cc3c2ccn3CCO)cc(F)c2c1-n1c(C)nnc1C(C)(C)N2` [Example 55, 2-[6-Fluoro-4-(6-fluoro-9-methoxy-1,4,4-trimethyl-5H-[1,2,4]triazolo[4,3-a]quinoxalin-8-yl)-1H-indol-1-yl]-EtOH], for which the IC50 or EC50 (antagonist or agonist mode, not stated per compound) is 100 to 1000 nM.

For the molecule `COc1c(-c2cc(F)cc3c2ccn3S(C)(=O)=O)cc(F)c2c1-n1c(C)nnc1C(C)(C)N2` [Example 56, 6-Fluoro-8-(6-fluoro-1-methylsulfonyl-1H-indol-4-yl)-9-methoxy-1,4,4-trimethyl-5H-[1,2,4]triazolo[4,3-a]quinoxaline], the IC50 or EC50 (antagonist or agonist mode, not stated per compound) was 100 to 1000 nM. As to `COc1c(-c2cccc3c2ccn3S(C)(=O)=O)cc(F)c2c1-n1c(C)nnc1C(C)(C)N2` [Example 57, 6-Fluoro-9-methoxy-1,4,4-trimethyl-8-(1-methylsulfonyl-1H-indol-4-yl)-5H-[1,2,4]triazolo[4,3-a]quinoxaline], the IC50 or EC50 (antagonist or agonist mode, not stated per compound) was 100 to 1000 nM. For the molecule `COc1c(-c2cc(F)cc3c2ccn3CC(F)F)cc(F)c2c1-n1c(C)nnc1C(C)(C)N2` [Example 58, 8-(1-(2,2-difluoroethyl)-6-fluoro-1H-indol-4-yl)-6-fluoro-9-methoxy-1,4,4-trimethyl-4,5-dihydro-[1,2,4]triazolo[4,3-a]quinoxaline], the IC50 or EC50 (antagonist or agonist mode, not stated per compound) was in the range of 100 to 1000 nM. Take `COc1c(-c2cc(F)cc3c2ccn3S(C)(=O)=O)cc(F)c2c1-n1c(C3CC3)nnc1C(C)(C)N2` [Example 59, 1-Cyclopropyl-6-fluoro-8-(6-fluoro-1-methylsulfonyl-1H-indol-4-yl)-9-methoxy-4,4-dimethyl-5H-[1,2,4]triazolo[4,3-a]quinoxaline]: the IC50 or EC50 (antagonist or agonist mode, not stated per compound) lay within 1000 to 15000 nM.

`COc1c(-c2cc(F)cc3c2ccn3CCO)cc(F)c2c1-n1c(C3CC3)nnc1C(C)(C)N2` [Example 61, 2-[4-(1-Cyclopropyl-6-fluoro-9-methoxy-4,4-dimethyl-5H-[1,2,4]triazolo[4,3-a]quinoxalin-8-yl)-6-fluoro-1H-indol-1-yl]-EtOH]: the IC50 or EC50 (antagonist or agonist mode, not stated per compound) is 1000 to 15000 nM. As for `COc1c(-c2cc(F)cc3c(C)c[nH]c23)cc(F)c2c1-n1c(C3CC3)nnc1C(C)(C)N2` [Example 62, 1-Cyclopropyl-6-fluoro-8-(5-fluoro-3-methyl-1H-indol-7-yl)-9-methoxy-4,4-dimethyl-5H-[1,2,4]triazolo[4,3-a]quinoxaline], the IC50 or EC50 (antagonist or agonist mode, not stated per compound) lay within 100 to 1000 nM.

On to `Cc1c(-c2cc(F)cc3c2ccn3S(C)(=O)=O)cc(F)c2c1-n1c(C3CC3)nnc1C(C)(C)N2` [Example 63, 1-Cyclopropyl-6-fluoro-8-(6-fluoro-1-methylsulfonyl-1H-indol-4-yl)-4,4,9-trimethyl-5H-[1,2,4]triazolo[4,3-a]quinoxaline], for which the IC50 or EC50 (antagonist or agonist mode, not stated per compound) lay within 100 to 1000 nM.

Take `Cc1c(-c2cccc3c2ccn3S(C)(=O)=O)cc(F)c2c1-n1c(C3CC3)nnc1C(C)(C)N2` [Example 64, 1-Cyclopropyl-6-fluoro-4,4,9-trimethyl-8-(1-methylsulfonyl-1H-indol-4-yl)-5H-[1,2,4]triazolo[4,3-a]quinoxaline]: the IC50 or EC50 (antagonist or agonist mode, not stated per compound) was in the range of 1000 to 15000 nM. Then `Cc1c(-c2cc(F)cc3c2ccn3CCO)cc(F)c2c1-n1c(C3CC3)nnc1C(C)(C)N2` [Example 65, 2-[4-(1-Cyclopropyl-6-fluoro-4,4,9-trimethyl-5H-[1,2,4]triazolo[4,3-a]quinoxalin-8-yl)-6-fluoro-1H-indol-1-yl]-EtOH], with 1000 to 15000 nM; and `Cc1c(-c2cc(F)cc3c(C)c[nH]c23)cc(F)c2c1-n1c(C3CC3)nnc1C(C)(C)N2` [Example 66, 1-Cyclopropyl-6-fluoro-8-(5-fluoro-3-methyl-1H-indol-7-yl)-4,4,9-trimethyl-5H-[1,2,4]triazolo[4,3-a]quinoxaline], with 100 to 1000 nM; and `COCCn1ccc2c(-c3cc(F)c4c(c3C)-n3c(C)nnc3C(C)(C)N4)cccc21` [Example 300, 6-Fluoro-8-[1-(2-methoxy-ethyl)-1H-indol-4-yl]-1,4,4,9-tetramethyl-5H-[1,2,4]triazolo[4,3-a]quinoxaline], with 100 to 1000 nM. For `Cc1c(-c2cccc3c2ccn3CCO)cc(F)c2c1-n1c(C)nnc1C(C)(C)N2` [Example 301, 2-[4-(6-Fluoro-1,4,4,9-tetramethyl-5H-[1,2,4]triazolo[4,3-a]quinoxalin-8-yl)-1H-indol-1-yl]-EtOH], the IC50 or EC50 (antagonist or agonist mode, not stated per compound) lay in the range of 100 to 1000 nM. Consider `Cc1c(-c2cccc3c2cnn3C)cc(F)c2c1-n1c(C)nnc1C(C)(C)N2` [Example 304, 6-Fluoro-1,4,4,9-tetramethyl-8-(1-methyl-1H-indazol-4-yl)-5H-[1,2,4]triazolo[4,3-a]quinoxaline], for which the IC50 or EC50 (antagonist or agonist mode, not stated per compound) fell in the range of 100 to 1000 nM. As for `Cc1c(-c2cccc3c2ccn3C2CC2)cc(F)c2c1-n1c(C)nnc1C(C)(C)N2` [Example 305, 8-(1-Cyclopropyl-1H-indol-4-yl)-6-fluoro-1,4,4,9-tetramethyl-5H-[1,2,4]triazolo[4,3-a]quinoxaline], the IC50 or EC50 (antagonist or agonist mode, not stated per compound) was under 100 nM.

Values taken from patent publication US11981677B2, “Further substituted triazolo quinoxaline derivatives” (Grünenthal GmbH, priority 2018, dated 2024).
